Laboratory results: patent publication US20260263606A1 (priority 2022, published 2026)
pEC50, pIC50: −log10 of the molar value. Where two headings read alike, the source gives them in different places.

What was measured:
METTL3-METTL14 [1] = biological target: T1, METTL3-METTL14 (Homo sapiens, UniProt Q86U44); test: biochemical
Target sequence in this assay (Q9HCE5 whole entry): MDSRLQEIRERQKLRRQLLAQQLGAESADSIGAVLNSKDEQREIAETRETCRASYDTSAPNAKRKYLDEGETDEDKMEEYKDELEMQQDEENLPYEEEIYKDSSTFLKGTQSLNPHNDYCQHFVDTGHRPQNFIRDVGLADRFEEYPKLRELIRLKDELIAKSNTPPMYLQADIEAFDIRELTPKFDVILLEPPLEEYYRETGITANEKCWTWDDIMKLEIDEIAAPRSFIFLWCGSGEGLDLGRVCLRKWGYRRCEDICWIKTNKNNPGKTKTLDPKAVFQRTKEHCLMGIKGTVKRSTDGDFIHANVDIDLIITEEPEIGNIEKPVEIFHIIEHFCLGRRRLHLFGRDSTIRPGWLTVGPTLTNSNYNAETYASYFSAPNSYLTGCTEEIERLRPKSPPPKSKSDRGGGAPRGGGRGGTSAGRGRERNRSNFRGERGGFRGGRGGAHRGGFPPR
Target sequence in this assay (Q86U44 whole entry): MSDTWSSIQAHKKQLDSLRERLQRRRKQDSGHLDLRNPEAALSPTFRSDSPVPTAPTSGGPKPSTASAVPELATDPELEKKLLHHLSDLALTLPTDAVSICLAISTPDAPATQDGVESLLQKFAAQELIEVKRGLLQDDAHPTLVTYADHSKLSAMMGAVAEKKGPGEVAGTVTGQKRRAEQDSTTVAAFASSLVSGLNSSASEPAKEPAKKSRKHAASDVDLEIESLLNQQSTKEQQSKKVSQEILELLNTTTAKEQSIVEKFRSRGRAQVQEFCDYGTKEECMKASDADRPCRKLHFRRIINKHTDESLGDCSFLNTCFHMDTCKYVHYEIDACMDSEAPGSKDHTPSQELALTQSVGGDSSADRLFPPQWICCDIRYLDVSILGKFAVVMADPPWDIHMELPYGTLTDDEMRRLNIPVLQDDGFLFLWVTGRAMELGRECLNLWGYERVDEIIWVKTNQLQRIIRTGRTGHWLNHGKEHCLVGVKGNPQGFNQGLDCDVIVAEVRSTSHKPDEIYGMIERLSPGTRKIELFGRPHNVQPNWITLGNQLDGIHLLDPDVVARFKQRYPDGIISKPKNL

METTL3-METTL14 [2] = biological target: T1, METTL3-METTL14; conditions: for LLE (lipophilic ligand efficiency, pIC50-logP): calculated with DataWarrior; for LE (ligand efficiency): from TR-FRET IC50
Target sequence in this assay (Q9HCE5 whole entry): as the sequence (Q9HCE5 whole entry) above
Target sequence in this assay (Q86U44 whole entry): as the sequence (Q86U44 whole entry) above

[3] = Rat liver microsomes
METTL3-METTL14 [4] = biological target: T1, METTL3-METTL14; test: Protein thermal shift assay, METTL3/METTL14; conditions: read-out: ΔTm of METTL3/METTL14
Target sequence in this assay (Q86U44 whole entry): as above
Target sequence in this assay (Q9HCE5 whole entry partner): as the sequence (Q9HCE5 whole entry) above

[5] = system: m^6A/A ratio in polyadenylated RNA, MOLM-13 cells; test: m6A/A ratio in polyadenylated RNA by UPLC-MS/MS, MOLM-13; conditions: Homo sapiens, MOLM-13, 16 h, read-out: EC50 reduction of m^6A/A in polyadenylated RNA
[6] = read-out: IC50 for N6-adenosine-methyltransferase, exemplary PROTAC compounds, Table 9, HTRF, triplicates

| SMILES | pIC50 (METTL3-METTL14 [2]; [6]) | LLE (lipophilic ligand efficiency, pIC50-logP) (METTL3-METTL14 [2]) | also measured |
| --- | --- | --- | --- |
| CC1(C)CCN(Cc2cc(F)c(N3CC(=O)NC4(CCN(c5cc(NCc6cccc(CNC(=O)CCn7cc(CNc8cccc9c8C(=O)N(C8CCC(=O)NC8=O)C9=O)nn7)c6)ncn5)CC4)C3)cc2F)CC1 (stereo not shown) [Compound 53-1] |  |  | pIC50 (METTL3-METTL14 [1]): 6.70 |
| CC1(C)CCN(Cc2ccc(N3CC(=O)NC4(CCN(c5cc(NCCCNC(=O)CCn6cc(CNc7cccc8c7C(=O)N(C7CCC(=O)NC7=O)C8=O)nn6)ncn5)CC4)C3)cc2)CC1 (stereo not shown) [Compound 13-11] |  |  | pIC50 (METTL3-METTL14 [1]): 5.74 |
| CC1(C)CCN(Cc2ccc(N3CC(=O)NC4(CCN(c5cc(NCCCNC(=O)CCCCCCCCCCCCCCNc6cccc7c6CN(C6CCC(=O)NC6=O)C7=O)ncn5)CC4)C3)cc2)CC1 (stereo not shown) [Compound 54-1] | 5.91 |  |  |
| CC1(C)CCN(Cc2ccc(C(=O)NC3CCN(c4cc(NCc5ccccc5)ncn4)CC3)cn2)CC1 [Compound 6] |  | 1.7 | LE (ligand efficiency) (METTL3-METTL14 [2]): 0.20 kcal.mol^−1 heavy atom count^−1 |
| CNc1cc(N2CCC(O)(CNc3ccc(CN4CCC(C)(C)CC4)nc3)CC2)ncn1 [Compound 4] |  | 3.4 | pIC50 (METTL3-METTL14 [2]; TR-FRET assay): 5.24 |
| CC1(C)CCN(Cc2ccc(N3CC(=O)NC4(CCN(c5nc(Cl)nc6[nH]ccc56)CC4)C3)cc2)CC1 [Compound 19, 9-(2-Chloro-7H-pyrrolo[2,3-d]pyrimidin-4-yl)-4-(4-((4,4-dimethylpiperidin-1-yl)methyl)phenyl)-1,4,9-triazaspiro[5.5]undecan-2-one] |  | 3.9 | RLM t1/2 [3]: 32 min |
| CNc1cc(N2CC3(CN(c4ccc(CN5CCC(C)(C)CC5)cc4)CC(=O)N3)C2)ncn1 [Compound 11, 8-(4-((4,4-Dimethylpiperidin-1-yl)methyl)phenyl)-2-(6-(methylamino)pyrimidin-4-yl)-2,5,8-triazaspiro[3.5]nonan-6-one] |  | 4.5 | LE (ligand efficiency) (METTL3-METTL14 [2]): 0.26 kcal.mol^−1 heavy atom count^−1; RLM t1/2 [3]: 70 min |
| CNc1cc(N2CCC3(CC2)CN(c2ccc(CN4CCC(C)(C)CC4)cc2)C(=O)N3)ncn1 [Compound 12] |  | 2.6 | LE (ligand efficiency) (METTL3-METTL14 [2]): 0.23 kcal.mol^−1 heavy atom count^−1 |
| CC1(C)CCN(Cc2ccc(N3CC(=O)NC4(CCN(c5cc(NCCCNC(=O)CCCCCCCCn6cc(CNc7cccc8c7C(=O)N(C7CCC(=O)NC7=O)C8=O)nn6)ncn5)CC4)C3)cc2)CC1 (stereo not shown) [Compound 57-1] |  |  | pIC50 (METTL3-METTL14 [1]): 6.32 |
| CC1(C)CCN(Cc2ccc(N3CC(=O)NC4(CCN(c5cc(NCCCNC(=O)CNc6cccc7c6CN(C6CCC(=O)NC6=O)C7=O)ncn5)CC4)C3)cc2)CC1 (stereo not shown) [Compound 15-13] |  |  | pIC50 (METTL3-METTL14 [1]): 6.28 |
| CC1(C)CCN(Cc2cc(F)c(N3CC(=O)NC4(CCN(c5cc(NCCCNC(=O)CCCCCCCCn6cc(CNc7cccc8c7C(=O)N(C7CCC(=O)NC7=O)C8=O)nn6)ncn5)CC4)C3)cc2F)CC1 (stereo not shown) [Compound 58-1] | 7.17 |  |  |
| CC1(C)CCN(Cc2cc(F)c(N3CC(=O)NC4(CCN(c5cc(NCCCNC(=O)CCCCCCCCNc6cccc7c6CN(C6CCC(=O)NC6=O)C7=O)ncn5)CC4)C3)cc2F)CC1 (stereo not shown) [Compound 55-1] | 7.18 |  |  |
| CC1(C)CCN(Cc2cc(F)c(N3CC(=O)NC4(CCN(c5cc(NCc6cccc(CNC(=O)CCCCCCCCNc7cccc8c7CN(C7CCC(=O)NC7=O)C8=O)c6)ncn5)CC4)C3)cc2F)CC1 (stereo not shown) [Compound 50-1] | 7.17 |  |  |
| CC1(C)CCN(Cc2cc(F)c(N3CC(=O)NC4(CCN(c5cc(NCCCNC(=O)CCCCCCCCCCn6cc(CNc7cccc8c7C(=O)N(C7CCC(=O)NC7=O)C8=O)nn6)ncn5)CC4)C3)cc2F)CC1 (stereo not shown) [Compound 59-1] | 6.66 |  |  |
| CC1(C)CCN(Cc2ccc(N3CC(=O)NC4(CCN(c5ccnc6[nH]ccc56)CC4)C3)cc2)CC1 [Compound 18] |  | 2.3 | LE (ligand efficiency) (METTL3-METTL14 [2]): 0.20 kcal.mol^−1 heavy atom count^−1 |
| Nc1ncnc2c1ncn2[C@@H]1O[C@H](CSCC[C@H](N)C(=O)O)[C@@H](O)[C@H]1O [SAH, S-adenosyl-L-homocysteine, reference compound] |  |  | ΔTm at 100 µM (METTL3-METTL14 [4]): 2.8 °C |
| CC1(C)CCN(Cc2ccc(N3CC(=O)NC4(CCN(c5cc(NCCCNC(=O)CCOCCOCCOCCOCCNc6cccc7c6C(=O)N(C6CCC(=O)NC6=O)C7=O)ncn5)CC4)C3)cc2)CC1 (stereo not shown) [Compound 10-6] | 6.23 |  |  |

| SMILES | pIC50 (METTL3-METTL14 [2]; [6]) | LLE (lipophilic ligand efficiency, pIC50-logP) (METTL3-METTL14 [2]) | also measured |
| --- | --- | --- | --- |
| CNc1cc(N2CCCC(O)(CNC(=O)c3ccc(CN4CCC(C)(C)CC4)cc3)C2)ncn1 (stereo not shown) [Compound 1] |  | 2.5 | LE (ligand efficiency) (METTL3-METTL14 [2]): 0.21 kcal.mol^−1 heavy atom count^−1 |
| CC1(C)CCN(Cc2cc(F)c(N3CC(=O)NC4(CCN(c5cc(NCCCNC(=O)CCCCCCCCCCNc6cccc7c6CN(C6CCC(=O)NC6=O)C7=O)ncn5)CC4)C3)cc2F)CC1 (stereo not shown) [Compound 56-1] | 6.52 |  |  |
| CNc1cc(N2CCC3(CC2)CN(c2cc(F)c(CN4CCC(C)(C)CC4)cc2F)CC(=O)N3)ncn1 [Compound 22, 4-(4-((4,4-Dimethylpiperidin-1-yl)methyl)-2,5-difluorophenyl)-9-(6-(methylamino)pyrimidin-4-yl)-1,4,9-triazaspiro[5.5]undecan-2-one] |  |  | ΔTm at 100 µM (METTL3-METTL14 [4]): 4.7 °C; pEC50 [5]: 6.15 |
| CNc1cc(N2CCC3(CC2)CN(c2ccc(CN4CCC(C)(C)CC4)cc2)CC(=O)N3)ncn1 [Compound 10, 4-(4-((4,4-dimethylpiperidin-1-yl)methyl)phenyl)-9-(6-(methylamino)pyrimidin-4-yl)-1,4,9-triazaspiro[5.5]undecan-2-one] |  |  | pIC50 (METTL3-METTL14 [2]; TR-FRET assay): 7.05 |
| CC1(C)CCN(Cc2cc(F)c(N3CC(=O)NC4(CCN(c5cc(NCC6CCN(C(=O)CCCCCCCCN7CCN(c8cccc9c8C(=O)N(C8CCC(=O)NC8=O)C9=O)CC7)CC6)ncn5)CC4)C3)cc2F)CC1 (stereo not shown) [Compound 49-1] |  |  | pIC50 (METTL3-METTL14 [1]): 8.30 |
| CNc1cc(N2CCC(O)(CNc3ccc(CN4CCC(C)(C)CC4)cn3)CC2)ncn1 [Compound 3] |  | 3.2 | pIC50 (METTL3-METTL14 [2]; TR-FRET assay): 5.34 |
| CC(C)Nc1cc(N2CCC3(CC2)CN(c2ccc(CN4CCC(C)(C)CC4)cc2)CC(=O)N3)ncn1 [Compound 15, 4-(4-((4,4-Dimethylpiperidin-1-yl)methyl)phenyl)-9-(6-(isopropylamino)pyrimidin-4-yl)-1,4,9-triazaspiro[5.5]undecan-2-one] |  | 3.2 | LE (ligand efficiency) (METTL3-METTL14 [2]): 0.24 kcal.mol^−1 heavy atom count^−1 |
| CC1(C)CCN(Cc2ccc(N3CC(=O)NC4(CCN(c5cc(NCCCNC(=O)CCOCCOCCOCCOCCOCCNc6cccc7c6C(=O)N(C6CCC(=O)NC6=O)C7=O)ncn5)CC4)C3)cc2)CC1 (stereo not shown) [Compound 11-7] | 6.19 |  |  |
| CC1(C)CCN(Cc2ccc(NCC3(O)CCN(c4cc(NCc5ccccc5)ncn4)CC3)cn2)CC1 [Compound 5] |  |  | pIC50 (METTL3-METTL14 [2]; TR-FRET assay): 6.10 |
| CN(C)c1cc(N2CCC3(CC2)CN(c2ccc(CN4CCC(C)(C)CC4)cc2)CC(=O)N3)ncn1 [Compound 14] |  | 3.2 | LE (ligand efficiency) (METTL3-METTL14 [2]): 0.23 kcal.mol^−1 heavy atom count^−1 |
| CC1(C)CCN(Cc2ccc(N3CC(=O)NC4(CCN(c5cc(NCCCNC(=O)CCCCCCCCNc6cccc7c6CN(C6CCC(=O)NC6=O)C7=O)ncn5)CC4)C3)cc2)CC1 (stereo not shown) [Compound 14-12] | 6.59 |  |  |
| CC1(C)CCN(Cc2ccc(N3CC(=O)NC4(CCN(c5cc(NCCCNC(=O)CCOCCOCCOCCNc6cccc7c6C(=O)N(C6CCC(=O)NC6=O)C7=O)ncn5)CC4)C3)cc2)CC1 (stereo not shown) [Compound 9-5] | 5.97 |  |  |
| CNc1cc(N2CCC(O)(CNc3ccc(CN4CCC(C)(C)CC4)cc3)CC2)ncn1 [Compound 2] |  | 2.5 | pIC50 (METTL3-METTL14 [2]; TR-FRET assay): 5.30 |
| CC1(C)CCN(Cc2cc(F)c(N3CC(=O)NC4(CCN(c5cc(NCc6cccc(CNC(=O)CCCCCCCCn7cc(CNc8cccc9c8C(=O)N(C8CCC(=O)NC8=O)C9=O)nn7)c6)ncn5)CC4)C3)cc2F)CC1 (stereo not shown) [Compound 52-1] | 7.06 |  |  |
| CC1(C)CCN(Cc2cc(F)c(N3CC(=O)NC4(CCN(c5cc(NCc6cccc(CNC(=O)CCCCCCCCCCNc7cccc8c7CN(C7CCC(=O)NC7=O)C8=O)c6)ncn5)CC4)C3)cc2F)CC1 (stereo not shown) [Compound 51-1] | 6.80 |  |  |
| CC1(C)CCN(Cc2ccc(N3CC(=O)NC4(CCN(c5cc(NCCCNC(=O)CCOCCOCCNc6cccc7c6C(=O)N(C6CCC(=O)NC6=O)C7=O)ncn5)CC4)C3)cc2)CC1 (stereo not shown) [Compound 8-4] | 5.61 |  |  |
| CNc1cc(N2CCC3(CC2)CN(c2ccc(CN4CCC(C)(C)CC4)cc2)CC(=O)N3C)ncn1 [Compound 13] |  | 3.0 | pIC50 (METTL3-METTL14 [2]; TR-FRET assay): 5.82; LE (ligand efficiency) (METTL3-METTL14 [2]): 0.22 kcal.mol^−1 heavy atom count^−1 |
